Measured values: patent publication US20250171430A1, “PYRAZOLYL COMPOUNDS AS KV7 CHANNEL ACTIVATORS” (Biohaven Therapeutics Ltd., priority 2022, published 2025)

What follows are compounds tested against T1, Kv7.2/7.3 (Homo sapiens, UniProt O43525+O43526) (assay: Kv7.2/7.3 Activation Assay (Thallium Flux Assay)). Settings: hKV7.2/7.3 cell line; test compound at single concentration of 10 μM; fluorescence at 90 sec normalized to positive control (retigabine, 30 μM).
T1 construct: Kv7.2 tetracycline-induced, Kv7.3 constitutive
Assay type: cell-based
Method in brief: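 Human Kv7.2/7.3 cells with Kv7.2 induced overnight by 10 ng/mL tetracycline were loaded with FluxOR II Green for 1 h at 37 °C. Compounds were tested at 10 μM in 0.1% DMSO/extracellular solution, pH 7.4. Thallium/potassium stimulus was added after a 15 s baseline, and 90 s fluorescence (ex 475/em 530 nm) was normalized to 30 μM retigabine.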

Row | SMILES | Kv7.2/7.3 Activity
1 | Cn1nc(NC(=O)NC2CC(F)(F)C2)c(C2CCC2)c1C1CC(F)(F)C1 [Compound 290, 1-(4-cyclobutyl-5-(3,3-difluorocyclobutyl)-1-methyl-1H-pyrazol-3-yl)-3-(3,3-difluorocyclobutyl)urea] | ++ (“++” High Activity ≥ 0.7)
2 | CN(CC(F)(F)F)C(=O)Nc1nn(C)c(C2CC(F)(F)C2)c1C1CCC1 [Compound 291, 3-(4-cyclobutyl-5-(3,3-difluorocyclobutyl)-1-methyl-1H-pyrazol-3-yl)-1-methyl-1-(2,2,2-trifluoroethyl)urea] | ++ (“++” High Activity ≥ 0.7)
3 | Cn1nc(NC(=O)OC2CC(F)(F)C2)c(C2CCC2)c1C1CCC(F)(F)CC1 [Compound 292, 3,3-difluorocyclobutyl (4-cyclobutyl-5-(4,4-difluorocyclohexyl)-1-methyl-1H-pyrazol-3-yl)carbamate] | ++ (“++” High Activity ≥ 0.7)
4 | Cn1nc(NC(=O)NCC(F)(F)F)c(C2CCC2)c1C1CC(F)(F)C1 [Compound 293, 1-(4-cyclobutyl-5-(3,3-difluorocyclobutyl)-1-methyl-1H-pyrazol-3-yl)-3-(2,2,2-trifluoroethyl)urea] | ++ (“++” High Activity ≥ 0.7)
5 | Cn1nc(NC(=O)NCC(C)(C)C)c(C2CCC2)c1C1CC(F)(F)C1 [Compound 294, 1-(4-cyclobutyl-5-(3,3-difluorocyclobutyl)-1-methyl-1H-pyrazol-3-yl)-3-neopentylurea] | ++ (“++” High Activity ≥ 0.7)
6 | Cn1nc(NC(=O)OC2CCC2)c(C2CCC2)c1C1CC(F)(F)C1 [Compound 295, cyclobutyl (4-cyclobutyl-5-(3,3-difluorocyclobutyl)-1-methyl-1H-pyrazol-3-yl)carbamate] | ++ (“++” High Activity ≥ 0.7)
7 | Cn1nc(NC(=O)NCC(F)F)c(C2CCC2)c1C1CC(F)(F)C1 [Compound 296, 1-(4-cyclobutyl-5-(3,3-difluorocyclobutyl)-1-methyl-1H-pyrazol-3-yl)-3-(2,2-difluoroethyl)urea] | ++ (“++” High Activity ≥ 0.7)
8 | Cn1nc(NC(=O)NCC2CC(F)(F)C2)c(C2CCC2)c1C1CC(F)(F)C1 [Compound 297, 1-(4-cyclobutyl-5-(3,3-difluorocyclobutyl)-1-methyl-1H-pyrazol-3-yl)-3-((3,3-difluorocyclobutyl)methyl)urea] | ++ (“++” High Activity ≥ 0.7)
9 | Cn1nc(NC(=O)[C@H]2CC2(F)F)c(C2CCC2)c1-c1cnc(C(F)(F)F)s1 [Compound 298, (R)-N-(4-cyclobutyl-1-methyl-5-(2-(trifluoromethyl)thiazol-5-yl)-1H-pyrazol-3-yl)-2,2-difluorocyclopropane-1-carboxamide] | − (“−” No Activity < 0.15)
